From paper PMC9569640, “Structural Insights into the Binding Propensity of Human SHIP2 SH2 to Oncogenic CagA Isoforms from Helicobacter pylori” (International Journal of Molecular Sciences, 2022)
Changes are numbered by the printed parent chain. Like-named read-outs stand apart in the source and are kept apart here. Square brackets hold non-standard residues; d marks the D form. Peptide text beside a SMILES is read from it. pY = N[C@@H](Cc1ccc(OP(=O)(O)O)cc1)C(=O)O

Key:
[1] = target: T1, SHIP2-SH2 S84A (Homo sapiens, UniProt O15357, S84A); test: Fluorescence polarization binding, SHIP2-SH2 mutant S84A; settings: FP assay; FAM-labeled 13-mer phosphopeptide 100 nM; pH 7.5; n = 3 averaged; ± standard error of fitting; SEM; read-out: dissociation constant (KD) for SHIP2-SH2 S84A
T1 construct: The SHIP2 SH2 domain (hereafter represented by SHIP2-SH2); made in house
T1 sequence (O15357 21-117 S84A limits assumed): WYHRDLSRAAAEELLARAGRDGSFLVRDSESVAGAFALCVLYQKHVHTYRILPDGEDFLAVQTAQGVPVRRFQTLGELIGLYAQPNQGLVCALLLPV
Experimental: (§1) Expression and purification of wild-type SHIP2-SH2 and its mutants including R28A, S49A, E50A, S51A, R70A, S84A and Q107A were carried out using the previously described method, and circular dichroism (CD) spectra were collected to confirm no obvious secondary structure change of the mutants. The purified proteins were concentrated to a final concentration of 0.2 mM for NMR experiments in the NMR buffer containing 90% H2O/10% D2O (v/v), 20 mM Tris, 100 mM NaCl, 10 mM DTT and 0.02% NaN3 at pH 7.5. Peptides derived from the four types of EPIYA motifs were synthesized by GL Biochem Ltd. (Shanghai, China). Tyr-phosphorylated peptides included: 8-mer (E-P-I-pY-A-K-V-N) and 13-mer (E-N-E-P-I-pY-A-K-V-N-K-K-K) EPIYA-A; 8-mer (E-P-I-pY-A-Q-V-A) and 13-mer (P-E-E-P-I-pY-A-Q-V-A-K-K-V) EPIYA-B; and 8-mer EPIYA-CD (E-P-I-pY-A-T-I-D), 13-mer EPIYA-C (S-P-E-P-I-pY-A-T-I-D-D-L-G) and 13-mer EPIYA-D (S-P-E-P-I-pY-A-T-I-D-F-D-E). The purities of the peptides were determined to be above 98% by high performance liquid chromatography (HPLC) and the molecular weights were confirmed by electrospray ionization mass spectrometry (ESI-MS).
(§2) The used phosphopeptides for different versions of CagA EPIYA A/B/C/D motifs were labeled with FAM at the N-terminal end and dissolved in a buffer containing 20 mM Tris, 100 mM NaCl, 10 mM DTT and 0.02% NaN3, at pH 7.5. The peptide concentration was kept at 100 nM, while wild-type SHIP2-SH2 and its mutants were serially diluted with the concentrations ranging from micromolar to nanomolar, and then mixed with the peptide, respectively. FP values of FAM-labeled peptides bound by SHIP2-SH2 were measured using a SpectraMax i3x multi-mode plate reader (Molecular Devices) by recording the excitation at 485 nm and emission at 528 nm. Each binding reaction was repeated three times, and the polarization values were averaged (given in units of mP). The averaged polarization value of each titration point was subtracted from that of the free peptide to obtain the final value. The dissociation constants (KD) were calculated using the final polarization value of each titration point as previously described.

[2] = target: T2, SHIP2-SH2 E50A (Homo sapiens, UniProt O15357, E50A); test: Fluorescence polarization binding, SHIP2-SH2 mutant E50A; settings: FP assay; FAM-labeled 13-mer phosphopeptide 100 nM; pH 7.5; n = 3 averaged; ± standard error of fitting; SEM; read-out: dissociation constant (KD) for SHIP2-SH2 E50A
T2 construct: The SHIP2 SH2 domain (hereafter represented by SHIP2-SH2); made in house
T2 sequence (O15357 21-117 E50A limits assumed): T1 sequence (O15357 21-117 S84A limits assumed) with E30A, A64S
Experimental: as §1, §2

[3] = target: T3, SHIP2-SH2 R28A (Homo sapiens, UniProt O15357, R28A); test: Fluorescence polarization binding, SHIP2-SH2 mutant R28A; settings: FP assay; FAM-labeled 13-mer phosphopeptide 100 nM; pH 7.5; n = 3 averaged; ± standard error of fitting; SEM; read-out: dissociation constant (KD) for SHIP2-SH2 R28A
T3 construct: The SHIP2 SH2 domain (hereafter represented by SHIP2-SH2); made in house
T3 sequence (O15357 21-117 R28A limits assumed): T1 sequence (O15357 21-117 S84A limits assumed) with R8A, A64S
Experimental: as §1, §2

[4] = target: T4, SHIP2-SH2 S51A (Homo sapiens, UniProt O15357, S51A); test: Fluorescence polarization binding, SHIP2-SH2 mutant S51A; settings: FP assay; FAM-labeled 13-mer phosphopeptide 100 nM; pH 7.5; n = 3 averaged; ± standard error of fitting; SEM; read-out: dissociation constant (KD) for SHIP2-SH2 S51A
T4 construct: The SHIP2 SH2 domain (hereafter represented by SHIP2-SH2); made in house
T4 sequence (O15357 21-117 S51A limits assumed): T1 sequence (O15357 21-117 S84A limits assumed) with S31A, A64S
Experimental: as §1, §2

[5] = target: T5, SHIP2-SH2 S49A (Homo sapiens, UniProt O15357, S49A); test: Fluorescence polarization binding, SHIP2-SH2 mutant S49A; settings: FP assay; FAM-labeled 13-mer phosphopeptide 100 nM; pH 7.5; n = 3 averaged; ± standard error of fitting; SEM; read-out: dissociation constant (KD) for SHIP2-SH2 S49A
T5 construct: The SHIP2 SH2 domain (hereafter represented by SHIP2-SH2); made in house
T5 sequence (O15357 21-117 S49A limits assumed): T1 sequence (O15357 21-117 S84A limits assumed) with S29A, A64S
Experimental: as §1, §2

[6] = target: T6, SHIP2-SH2 Q107A (Homo sapiens, UniProt O15357, Q107A); test: Fluorescence polarization binding, SHIP2-SH2 mutant Q107A; settings: FP assay; FAM-labeled 13-mer phosphopeptide 100 nM; pH 7.5; n = 3 averaged; ± standard error of fitting; SEM; read-out: dissociation constant (KD) for SHIP2-SH2 Q107A
T6 construct: The SHIP2 SH2 domain (hereafter represented by SHIP2-SH2); made in house
T6 sequence (O15357 21-117 Q107A limits assumed): T1 sequence (O15357 21-117 S84A limits assumed) with A64S, Q87A
Experimental: as §1, §2

[7] = target: T7, SHIP2-SH2 (wild type) (Homo sapiens, UniProt O15357); test: Fluorescence polarization binding of FAM-labeled phosphopeptides to wild-type SHIP2-SH2; settings: FP assay, N-terminally FAM-labeled phosphopeptide 100 nM, 20 mM Tris, 100 mM NaCl, 10 mM DTT, 0.02% NaN3, pH 7.5, each reaction repeated three times, averaged, ± standard error of curve fitting, read-out: dissociation constant (KD) for wild-type SHIP2-SH2
T7 construct: The SHIP2 SH2 domain (hereafter represented by SHIP2-SH2); made in house
T7 sequence (O15357 21-117 limits assumed): T1 sequence (O15357 21-117 S84A limits assumed) with A64S
Experimental: as §1, §2

[8] = target: T8, SHIP2-SH2 R70A (Homo sapiens, UniProt O15357, R70A); test: Fluorescence polarization binding, SHIP2-SH2 mutant R70A; settings: FP assay; FAM-labeled 13-mer phosphopeptide 100 nM; pH 7.5; n = 3 averaged; ± standard error of fitting; SEM; read-out: dissociation constant (KD) for SHIP2-SH2 R70A
T8 construct: The SHIP2 SH2 domain (hereafter represented by SHIP2-SH2); made in house
T8 sequence (O15357 21-117 R70A limits assumed): T1 sequence (O15357 21-117 S84A limits assumed) with R50A, A64S
Experimental: as §1, §2

[9] = target: T7, SHIP2-SH2 (wild type); settings: summary Figure 6F, value from the authors' earlier NMR/FP study, cited from earlier work
Description: Figure 6 The binding interface and affinity of SHIP2-SH2 for different native ligands. The binding interface of SHIP2-SH2 for FcgR2B ITIM (A), CagA EPIYA-C/D (B), c-MET C-terminus (C), CagA EPIYA-A/B (D) is colored in blue. The additional interface of SHIP2-SH2 for 13-mer FcgR2B ITIM compared to 8-mer FcgR2B ITIM is colored in green. The interface was drawn according to the residues of SHIP2-SH2 showing a CSP greater than 0.2 ppm in NMR titration experiments with respective ligand. (E) The summarized three regions of SHIP2-SH2 which are differently engaged for binding different ligands are hig ...

Compound	Kd [1]	Kd [2]	Kd [3]	Kd [4]	Kd [5]	Kd [6]	Kd ([7]; SEM)	Kd [8]	Kd ([9]; read-out: Binding Affinities KD for SHIP2-SH2 (c-MET phosphopeptide))	Kd [7]	Kd ([9]; read-out: Binding Affinities KD for SHIP2-SH2 (FcgR2B ITIM phosphopeptide))
CC[C@H](C)[C@H](NC(=O)[C@@H]1CCCN1C(=O)[C@H](CCC(=O)O)NC(=O)[C@H](CC(N)=O)NC(=O)[C@@H](N)CCC(=O)O)C(=O)N[C@@H](Cc1ccc(OP(=O)(O)O)cc1)C(=O)N[C@@H](C)C(=O)N[C@@H](CCCCN)C(=O)N[C@H](C(=O)N[C@@H](CC(N)=O)C(=O)N[C@@H](CCCCN)C(=O)N[C@@H](CCCCN)C(=O)N[C@@H](CCCCN)C(=O)O)C(C)C [EPIYA-A] (H-ENEPI[pY]AKVNKKK-OH)	16.4 ± 0.47 µM	8.28 ± 0.67 µM	133 ± 6.95 µM	180 ± 37.4 µM	419 ± 18.6 µM	25.5 ± 1.5 µM	23.4 ± 1.03 µM	539 ± 24.2 µM			
CC[C@H](C)[C@H](NC(=O)[C@@H](NC(=O)[C@H](C)NC(=O)[C@H](Cc1ccc(OP(=O)(O)O)cc1)NC(=O)[C@@H](NC(=O)[C@@H]1CCCN1C(=O)[C@H](CCC(=O)O)NC(=O)[C@@H]1CCCN1C(=O)[C@@H](N)CO)[C@@H](C)CC)[C@@H](C)O)C(=O)N[C@@H](CC(=O)O)C(=O)N[C@@H](CC(=O)O)C(=O)N[C@@H](CC(C)C)C(=O)NCC(=O)O [EPIYA-C] (H-SPEPI[pY]ATIDDLG-OH)	2.79 ± 0.18 µM	0.96 ± 0.14 µM	12.9 ± 1.38 µM	22.4 ± 2.88 µM	77.5 ± 3.12 µM	2.78 ± 0.14 µM	2.96 ± 0.14 µM	119 ± 4.93 µM			
CC[C@H](C)[C@H](NC(=O)[C@@H]1CCCN1C(=O)[C@H](CCC(=O)O)NC(=O)[C@H](CCC(=O)O)NC(=O)[C@@H]1CCCN1)C(=O)N[C@@H](Cc1ccc(OP(=O)(O)O)cc1)C(=O)N[C@@H](C)C(=O)N[C@@H](CCC(N)=O)C(=O)N[C@H](C(=O)N[C@@H](C)C(=O)N[C@@H](CCCCN)C(=O)N[C@@H](CCCCN)C(=O)N[C@H](C(=O)O)C(C)C)C(C)C [EPIYA-B] (H-PEEPI[pY]AQVAKKV-OH)	17.9 ± 0.95 µM	6.6 ± 0.6 µM	143 ± 17.4 µM	171 ± 36 µM	303 ± 16.2 µM	21.4 ± 1.33 µM	18.6 ± 1.25 µM	532 ± 47.5 µM			
c-MET: Y1356-phosphorylated c-MET C-terminus peptide from the authors' previous study (NATYVNVK; not fully specified; phospho-Tyr1356)									7.43 µM		
CC[C@H](C)[C@H](NC(=O)[C@@H](NC(=O)[C@H](C)NC(=O)[C@H](Cc1ccc(OP(=O)(O)O)cc1)NC(=O)[C@@H](NC(=O)[C@@H]1CCCN1C(=O)[C@@H](N)CCC(=O)O)[C@@H](C)CC)[C@@H](C)O)C(=O)N[C@@H](CC(=O)O)C(=O)O [8-mer EPIYA-CD] (H-EPI[pY]ATID-OH)										4.45 µM	
CC[C@H](C)[C@H](NC(=O)[C@@H](NC(=O)[C@H](C)NC(=O)[C@H](Cc1ccc(OP(=O)(O)O)cc1)NC(=O)[C@@H](NC(=O)[C@@H]1CCCN1C(=O)[C@H](CCC(=O)O)NC(=O)[C@@H]1CCCN1C(=O)[C@@H](N)CO)[C@@H](C)CC)[C@@H](C)O)C(=O)N[C@@H](CC(=O)O)C(=O)N[C@@H](Cc1ccccc1)C(=O)N[C@@H](CC(=O)O)C(=O)N[C@@H](CCC(=O)O)C(=O)O [EPIYA-D]	2.69 ± 0.19 µM	1.14 ± 0.16 µM	15.5 ± 2.77 µM	24.6 ± 2.23 µM	76.8 ± 5.16 µM	3.46 ± 0.2 µM	3.16 ± 0.13 µM	116 ± 6.61 µM			
FcgR2B: Tyr-phosphorylated FcgR2B-ITIM peptide from the authors' previous study (ENTITYSLLMHPD; not fully specified; phospho-Tyr292 (ITIM tyrosine); an 8-mer form (289-296, pY-3 to pY+4) was also used in the cited study)											0.4 µM
